2 molecules from patent US11360080B2, “AhR-ROR-γt complex as a biomarker and therapeutic target for autoimmune disease and IL-17A-associated disease” (NATIONAL HEALTH RESEARCH INSTITUTES, priority 2018, dated 2022) can be followed below.

For experiment [1], the target named is T1, GLK (MAP4K3) (Homo sapiens, UniProt Q8IVH8).
T1 construct: Recombinant proteins of kinase domains of various MAP4Ks were used
Put plainly: In vitro kinase assay, recombinant kinase domain, myelin basic protein (MBP) as substrate. The experiment is classed as biochemical. The method, then: GLK kinase activity was determined by measuring the rate of ADP production in the in vitro kinase reaction using ADP-GLO™ Kinase Assay kit. For the kinase reaction, recombinant proteins of the GLK kinase-domain (1 μg) were incubated with recombinant proteins of kinase-dead PKCθ (K409W; 0.15 μg) plus ATP (0.1 mM) or myelin basic protein (MBP) plus ATP (0.1 mM) in kinase buffer (40 mM Tris-HCl, pH7.5.20 mM MgCl2, 0.1 mg/ml BSA, 10 mM DTT and 0.1 mM Na3VO4) for 30 min at room temperature. We studied whether GLK inhibitors also suppress cancer cell migration. […] Moreover, both C1 (verteporfin) and C2 (alexidine dihydrochloride) treatments suppressed tumor growth in the xenograft mouse model using TC-1 lung cancer cells (FIG. 15). To study whether GLK deficiency results in a reduction of lung cancer metastasis, we used a metastatic Lewis lung carcinoma (LLC) mouse model by tail vein injection of luciferase-expressing LLC (LLC/luc) cells. We identified two GLK inhibitors (verteporfin and alexidine dihydrochloride)) using cell-based assays and in vitro kinase assays. […] The luciferase activity of LLC/luc cells in the mice was detected by In Vivo Imaging System. […] Inhibition of kinase activity of GLK (MAP4K3) or other MAP4Ks was determined by in vitro kinase assays using myelin basic protein (MBP) as a substrate. […]

Experiment [2] has as its system human peripheral blood T cells. The experiment in a line: ELISA of IL-17A in supernatants of human T cells stimulated with anti-CD3/CD28. The note with it: 1 μM or 5 μM for 3 days. The experiment is classed as cell-based. The procedure:
Means±SD are shown, (b) ELISA of IL-17A in supernatants of human T cells. T cells were stimulated with anti-CD3/CD28 and treated with C1 (verteporfin) (1 μM or 5 μM) or C2 (1 μM or 5 μM) for 3 days. HC, healthy control; SLE, systemic lupus erythematosus; RA, rheumatoid arthritis; AS, ankylosing spondylitis; PsA, psoriatic arthritis; PSS, primary Sjögren's syndrome. Means±SD are shown. C1 denotes verteporfin; C2 denotes alexidine dihydrochloride.
We further studied whether IL-17A production is abolished by the inhibitors of GLK-induced AhR-RORγt complex in human and murine T cells. We first tested the inhibitor experiment using murine T cells stimulated with TCR signaling (anti-CD3 plus anti-CD28 antibodies). […] Next, we studied the blocking effect of IL-17 production by the treatment of C1 (verteporfin) or C2 (alexidine dihydrochloride) using human peripheral blood T cells. […] Taken together, GLK inhibitors (verteporfin and alexidine dihydrochloride) inhibit GLK-induced AhR-RORγt complex and IL-17A production in human autoimmune patient T cells, as well as the disease severity of autoimmune animal models. Thus, GLK, GLK signaling, or GLK-induced AhR-RORγt complex can be a promising therapeutic target for autoimmune diseases.
(In an ELISA, binding on a coated surface is turned into a signal by an enzyme label.)

Experiment [3] has as its system GLK-induced NF-κB-luciferase activity. The experiment in a line: NF-κB-driven luciferase reporter assay in CHO-GLK-Luc cells. The experiment is classed as cell-based. The note with it: stable GLK-transfected CHO-K1 cells. The procedure:
(A) Luciferase activity of NF-κB-driven reporter assays in stable GLK-transfected CHO-K1 cells that were treated with or without the GLK inhibitor C1 (verteporfin) under the indicated concentration. The fold changes are presented relative to the value of vector control. (B) Recombinant proteins of GLK kinase domain plus recombinant proteins of GST-tagged kinase-dead PKCθ (K409W) were subjected to in vitro kinase assays in the presence or absence of the GLK inhibitor C1 (verteporfin). Means±SD of are shown. *, P value<0.05; **, P value<0.01 (two-tailed Student's t-test). (C) The AhR-RORγt complex was inhibited by the GLK inhibitor. Confocal microscopy of proximity ligation assays (PLA) for the interaction between AhR and either RORγt or phospho-RORγt (S489) in peripheral blood T cells treated with C1 (verteporfin) (5 μM) for 30 min. The T cells were freshly isolated from 4 SLE patients and 1 RA patients. C1 denotes verteporfin; C2 denotes alexidine dihydrochloride. (D) Quantification of the PLA signals of (C). (E) FRET assays of HEK293T cells co-transfected with CFP-AhR, YFP-RORγt, and IKKβ plasmids.
Cell-based high-throughput screening was conducted against a representative library of 100,000 molecules at ˜10 μM. CHO-GLK-Luc cells expressing GLK and NF-κB-luciferase reporter were used. […] This high-throughput screening campaign was successful with a determined Z′ factor of 0.57˜0.60. […]
A general note: In a reporter assay the amount or activity of a reporter protein is the signal.

Experiment [4] has as its system TC-1 lung cancer cells. The experiment in a line: TC-1 lung cancer xenograft model in wild-type mice. The class given is in vivo, mouse. The note with it: i.v. C1 10 uM, C2 17 uM every 3 days for 15 days. The procedure:
(A) Murine TC-1 lung cancer cells were subcutaneously inoculated into the right flank of wild-type mice for establishing a TC-1 xenograft model. TC-1 cells inoculated mice were intravenously injected with PBS, C1 (verteporfin) (10 uM), or C2 (alexidine dihydrochloride) (17 uM) every 3 days for 15 days. (B) Photographs of excised TC-1 lung cancers after receiving PBS, C1 (verteporfin) (10 uM), or C2 (17 uM) treatment. (C) The growth (mean tumor volume) of tumor was measured for 15 days. The TC-1 tumor size progression as a function of time post-administration with C1 or C2. N.D., not detectable. C1 denotes verteporfin; C2 denotes alexidine dihydrochloride.

The structures appear in SMILES notation. Where a name gives a salt, the structure may show the parent alone.

Usually IC50 stands for the concentration at which inhibition is half-maximal.

T1 sequence (Q8IVH8 16-273 limits assumed): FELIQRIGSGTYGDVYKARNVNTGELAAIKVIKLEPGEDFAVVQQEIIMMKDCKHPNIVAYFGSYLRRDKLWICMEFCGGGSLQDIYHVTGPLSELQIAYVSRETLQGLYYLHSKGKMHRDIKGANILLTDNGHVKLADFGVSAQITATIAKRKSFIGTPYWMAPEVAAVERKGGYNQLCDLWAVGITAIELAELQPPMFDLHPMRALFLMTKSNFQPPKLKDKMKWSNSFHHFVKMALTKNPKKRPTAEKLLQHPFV

Regarding `CCCCC(CC)CNC(=N)NC(=N)NCCCCCCNC(=N)NC(=N)NCC(CC)CCCC` (stereo not drawn) [C2, alexidine dihydrochloride], the IC50 in experiment [1] came out at 10.1 nM. In addition, the “IL-17A production, anti-CD3/CD28-stimulated T cells of autoimmune disease patients” value in experiment [2] is on record as “drastically inhibited”. In experiment [3], the “GLK signaling in cell lines (luciferase reporter)” value is given as “efficiently inhibited”. Further, in experiment [4], the “tumor growth (mean tumor volume)” value was “suppressed”.
Turning to `C=Cc1c(C)c2cc3nc(cc4[nH]c(cc5nc(cc1[nH]2)C(C)=C5CCC(=O)O)c(CCC(=O)OC)c4C)[C@@]1(C)C3=CC=C(C(=O)OC)[C@H]1C(=O)OC` [C1, verteporfin], the IC50 in experiment [1] amounted to 1.15 nM. For the same molecule, in experiment [2], the “IL-17A production, anti-CD3/CD28-stimulated T cells of autoimmune disease patients” value is listed as “drastically inhibited” and the “TCR-induced IL-17A production, T cells from healthy controls” value is recorded as “significantly reduced”. For the same molecule, the “GLK signaling in cell lines (luciferase reporter)” value in experiment [3] is “efficiently inhibited”. In experiment [4], the “tumor growth (mean tumor volume)” value was “suppressed”.
